Experiments:
[1] = xn = mol fraction of the nth substance listed; details: 101.33 kPa, Liquid
[2] = 101.33 kPa, Liquid

CCCO [propan-1-ol] + CCc1ccccc1
[1], x2 = 0
Details	mass density [kg/m3]	speed of sound [m/s]	viscosity [mPa·s]
298.15 K	799.6	1213	2.042
308.15 K	792	1182	1.565

CCCCO [butan-1-ol] + CCc1ccccc1
[1], x2 = 0
Details	mass density [kg/m3]	speed of sound [m/s]	viscosity [mPa·s]
298.15 K	807.7	1238	2.564
308.15 K	800.1	1211	2

CCc1ccccc1 [ethylbenzene]
[2]
Details	mass density [kg/m3]	speed of sound [m/s]	viscosity [mPa·s]
298.15 K	862	1312	0.628
308.15 K	855.5	1276	0.553

CCCO [propan-1-ol]
[2]
Details	mass density [kg/m3]	speed of sound [m/s]	viscosity [mPa·s]
298.15 K	799.6	1213	2.042
308.15 K	792	1182	1.565

CCO [ethanol] + CCc1ccccc1
[1], x2 = 0
Details	mass density [kg/m3]	speed of sound [m/s]	viscosity [mPa·s]
298.15 K	785.5	1160	1.117
308.15 K	776.3	1112	0.935

CCc1ccccc1 [ethylbenzene] + CCCCO
[1]
Details	mass density, 298.15 K [kg/m3]	mass density, 308.15 K [kg/m3]	speed of sound, 298.15 K [m/s]	speed of sound, 308.15 K [m/s]	viscosity, 298.15 K [mPa·s]	viscosity, 308.15 K [mPa·s]
x1 = 0.1035	816.7	808.9	1246	1217	1.985	1.569
x1 = 0.205	821.2	815.3	1256	1223	1.565	1.253
x1 = 0.3221	828.1	822	1264	1229	1.236	–
x1 = 0.365	831.1	824.5	1267	1231	1.147	0.941
x1 = 0.5071	839.6	832.1	1277	1239	0.916	0.765
x1 = 0.6494	845.7	839.1	1288	1249	0.764	0.651
x1 = 0.8136	854.5	846	1301	1262	0.693	0.577
x1 = 0.91	858.6	852.6	1307	1268	0.649	0.566
x1 = 1	862	855.5	1312	1276	0.628	0.553

CCc1ccccc1 [ethylbenzene] + CCO
[1]
Details	mass density, 298.15 K [kg/m3]	mass density, 308.15 K [kg/m3]	speed of sound, 298.15 K [m/s]	speed of sound, 308.15 K [m/s]	viscosity, 298.15 K [mPa·s]	viscosity, 308.15 K [mPa·s]
x1 = 0.0712	795	789.6	1170	1133	1.026	0.856
x1 = 0.1551	807.2	801.6	1185	1155	0.947	0.788
x1 = 0.2404	817.6	811.7	1203	1173	0.864	0.719
x1 = 0.352	827	820	1228	1195	0.789	0.656
x1 = 0.4053	836	823.2	1235	1203	0.764	0.629
x1 = 0.553	842.3	835.8	1261	1223	0.684	0.587
x1 = 0.7382	853.6	842.8	1278	1250	0.639	0.548
x1 = 0.8805	858.5	851.2	1291	1266	0.623	0.544
x1 = 1	862	855.5	1312	1276	0.628	0.553

CCc1ccccc1 [ethylbenzene] + CCCO
[1]
Details	mass density, 298.15 K [kg/m3]	mass density, 308.15 K [kg/m3]	speed of sound, 298.15 K [m/s]	speed of sound, 308.15 K [m/s]	viscosity, 298.15 K [mPa·s]	viscosity, 308.15 K [mPa·s]
x1 = 0.109	811.4	803.7	1227	1194	1.543	1.226
x1 = 0.1677	817.3	807.1	1233	1202	1.375	1.098
x1 = 0.3777	828.5	823.5	1257	1224	0.976	0.809
x1 = 0.5006	837.9	833.1	1266	1233	0.839	0.702
x1 = 0.6429	845.1	839	1277	1245	0.712	0.616
x1 = 0.8074	853.3	844.3	1287	1258	0.638	0.562
x1 = 0.8951	857	850	1299	1264	0.606	0.542
x1 = 1	862	855.5	1312	1276	0.628	0.553

CCO [ethanol]
[2]
Details	mass density [kg/m3]	speed of sound [m/s]	viscosity [mPa·s]
298.15 K	785.5	1160	1.117
308.15 K	776.3	1112	0.935

CCCCO [butan-1-ol]
[2]
Details	mass density [kg/m3]	speed of sound [m/s]	viscosity [mPa·s]
298.15 K	807.7	1238	2.564
308.15 K	800.1	1211	2
